Entries after “also recorded” stand apart in the source; their conditions may differ.
What was measured:
Format in all cases: cell-based
[1] = system: Candida albicans wild type strain SN250; assay: Screen for inhibition of Candida albicans lawn formation (halo) on solid YPD plates; settings: for inhibition of C. albicans growth (halo formation) on YPD plates: 5 μl of 10 mM drug on fungal lawn, 25° C. and 37° C.
Description: (§1) C. albicans was plated on solid YPD and serum plates, and 5 μl of each 10 mM drug was placed on top of the fungal lawn. The effect of exposure to each of the compounds from the library was assayed for its ability to inhibit C. albicans growth, as well as ability to form a halo within the fungal lawn. […] (FIG. 1A).
(§2) High-throughput Screening Assay: The sensitivity of C. albicans against compounds was assessed by a high-throughput chemical screen. 200 μl of C. albicans overnight culture were spread onto petri dishes containing either YPD or fetal bovine serum. 5 μl of each drug was placed directly on the agar surface using a multichannel pipette and slight contact of the tip to the agar made to leave an impression to facilitate later analysis. Compounds that were replicated were done on petri dishes, following the same protocol in at least five independent experiments. For the replication studies, only a single drug was placed per plate. The plates were incubated at either 25° C. or 37° C.

[2] = system: Candida albicans wild type strain SN250; assay: Screen for inhibition of Candida albicans lawn formation (halo) on solid serum (FBS agar) plates; settings: 5 μl of 10 mM drug on fungal lawn, 25° C. and 37° C.
Description: as §1
Media and Growth Conditions: C. albicans strains were cultured with 5 ml of YPD (1% yeast extract, 2% peptone, 2% dextrose, pH 6) medium at 30° C. overnight. Bacterial cells were cultured in LB (Luria-Bertani) medium consisting of 5 g Bacto-Tryptone, 2.5 g Bacto-Yeast Extract, 5 g NaCl and 7.5 g of 2% agar if preparing solid plates. The centrifuge tubes were incubated at 37° C. and left shaking overnight at 150 rpm. Fetal bovine serum was incorporated into agar. Fetal bovine serum was preheated in a water bath set at 65° C. […] The agar solution for the serum mixture consisted of 16 g agar, which was then brought up to 300 ml with nanopure water. The agar solution was then autoclaved at 120° C. for 45 minutes. The agar and serum mixtures were then amalgamated while in their isothermal states.
as §2

[3] = system: Candida albicans knock-out mutants; assay: Genotypic mutant screening against Octodrine (three knockout libraries, 908 mutant strains); settings: 5 μl of 10 mM drug on YPD plates, 30° C. overnight
Description: In order to identify C. albicans proteins and signaling pathways that mediate the lethality of Octodrine, three C. albicans knockout libraries were screened for any alterations in sensitivity to 10 mM Octodrine—collectively consisting of 908 mutant strains each strain lacking one of the virulence genes. These libraries consisted of 647 mutant strains lacking one of the essential virulence genes (Noble, S M et al., 2010, Nat Genet 42:590-598, the entire content of which is herein incorporated by reference); 96 cell wall protein mutants (Norice, C T et al., 2007, Eukaryot Cell 6:2046-2055, the entire content of which is herein incorporated by reference); and 165 transcription factors mutants (Nobile, C J et al., 2005, Curr Biol 15:1150-1155, the entire content of which is herein incorporated by reference).
Genotypic Mutant Screening Against Octodrine: Each C. albicans knockout strain was cultured in individual wells of a 96 well plate in 100 μl of YPD media overnight at 30° C. 5 μl of each Candida knock-out overnight culture was spotted onto a YPD solid plate using a multichannel pipette. The cells were then left to absorb into the YPD plates for 1 hour at 25° C. Using a multichannel pipette, 5 μl of Octodrine 10 mM was spotted directly on top of the C. albicans cells. The plates were then placed in an incubator set at 30° C. and left overnight. […]

[4] = system: Escherichia coli strain C600; assay: Halo formation in bacterial lawn, gram-negative bacteria; settings: 5 μl of neat form (3 mg of undiluted)
Excerpt: (§3) In order to test if Octodrine kills microorganisms by targeting their non-protein cellular components, Escherichia coli and Bacillus cereus, gram-negative and gram-positive bacteria respectively, were exposed to Octodrine.
(§4) Candida albicans and Bacterial Strains: The Candida albicans wild type strain SN250 was used for the high-throughput screening experiments. The bacterial strain consisted of Bacillus cereus strain 10987 and Escherichia coli strain C600. The genotypic screen for mutant sensitivity to Octodrine was tested with three C. albicans libraries that were previously created as disclosed in Noble, 2010, supra; Rauceo, J M et al., 2008, Mol Biol Cell 19:2741-2751; and Homann, O R et al., 2009, PLoS Genet 5:e1000783, the entire contents of all of which are herein incorporated by reference.
(§5) Media and Growth Conditions: C. albicans strains were cultured with 5 ml of YPD (1% yeast extract, 2% peptone, 2% dextrose, pH 6) medium at 30° C. overnight. Bacterial cells were cultured in LB (Luria-Bertani) medium consisting of 5 g Bacto-Tryptone, 2.5 g Bacto-Yeast Extract, 5 g NaCl and 7.5 g of 2% agar if preparing solid plates. The centrifuge tubes were incubated at 37° C. and left shaking overnight at 150 rpm. Fetal bovine serum was incorporated into agar. Fetal bovine serum was preheated in a water bath set at 65° C. […]

[5] = system: Bacillus cereus strain 10987; assay: Halo formation in bacterial lawn, gram-positive bacteria; settings: 5 μl of neat form (3 mg of undiluted)
Excerpt: as §3, §4, §5

[6] = system: RAW264.7 mouse macrophage cells; assay: Mammalian cell survival assay (MTT); settings: RAW264.7, 1 μl of 10 mM drug in 100 μl media with two-fold dilutions, 24 hours
Description: Mammalian cell culture, drug treatment, and survival assay: RAW264.7 mouse macrophage cells were maintained in DMEM (Dulbecco's Modified Eagle Medium, Sigma-Aldrich) supplemented with 10% FBS (fetal bovine serum, Bioexpress) and 100 μg/mL penicillin and 100 μg/mL streptomycin. RAW264.7 cells (10,000 per well) were seeded in 96-well plates (100 μL/well) 24 hours before the assay. During the assay, 1 μl of 10 mM drug was added to 100 μl of cell-containing media. Two-fold serial dilutions of the media were performed. Cells were treated with drugs for 24 hours, and determination of cell viability by 3-(4,5-dimethylthiazol-2-yl)-2,5-diphenyltetrazolium bromide (MTT) assay was performed as described in Lu et al., 2004, Proc Natl Acad Sci USA 101:17246-17251, the entire content of which is herein incorporated by reference.
Each data point shown in the figure for MTT assays represents the average of results from at least two wells in each of at least two separate experiments. Cell viability is shown as the percentage of survivors obtained relative to untreated cells (100%).

[7] = system: Candida albicans wild type strain SN250; assay: Screen for inhibition of Candida albicans lawn formation (halo) on solid serum (FBS agar) plates; settings: 5 μl of undiluted (neat) drug, approximately 3 mg, middle of serum-grown lawn

O=C1C2CC=CCC2C(=O)N1SC(Cl)(Cl)Cl (stereo not drawn) [Captan]
inhibition of C. albicans growth (halo formation) on YPD plates [1]: strong inhibition

Cc1ccc2c(Cl)cc(Cl)c(O)c2n1 [Chlorquinaldol]
inhibition of C. albicans growth (halo formation) on serum plates [2]: strongest inhibition

Clc1ccccc1C(c1ccccc1)(c1ccccc1)n1ccnc1 [Clotrimazole]
inhibition of C. albicans growth (halo formation) on YPD plates [1]: strong inhibition | inhibition of C. albicans growth (halo formation) on serum plates [2]: weak inhibition

OC(Cn1cncn1)(Cn1cncn1)c1ccc(F)cc1F [Fluconazole]
inhibition of C. albicans growth (halo formation) on YPD plates [1]: strong inhibition | inhibition of C. albicans growth (halo formation) on YPD plates ([1]; listed as fluconazole): effective inhibitor; also recorded: prominent halos | effectiveness at forming halos at 37° C. compared to 25° C. ([1]; 5 μl of 10 mM drug, 37° C. versus 25° C.): diminished effectiveness | inhibition of C. albicans growth (halo formation) on serum plates [2]: weak inhibition

CC(C)n1c(/C=C/C(O)CC(O)CC(=O)O)c(-c2ccc(F)cc2)c2ccccc21 (stereo not drawn) [Fluvastatin]
inhibition of C. albicans growth (halo formation) on serum plates [2]: failed to inhibit

Clc1ccc(COC(Cn2ccnc2)c2ccc(Cl)cc2Cl)c(Cl)c1 (stereo not drawn) [Miconazole]
inhibition of C. albicans growth (halo formation) on YPD plates [1]: strong inhibition | inhibition of C. albicans growth (halo formation) on serum plates [2]: weak inhibition

COc1c(C)c2c(c(O)c1C/C=C(\C)CCC(=O)O)C(=O)OC2 [Mycophenolic acid]
inhibition of C. albicans growth (halo formation) on YPD plates [1]: very strong inhibition | inhibition of C. albicans growth (halo formation) on serum plates [2]: failed to inhibit

O=[N+]([O-])c1ccc(/C=N/O)o1 [Nifuroxime]
inhibition of C. albicans growth (halo formation) on serum plates [2]: weaker inhibition

O=[N+]([O-])c1ccc(O)c2ncccc12 [Nitroxoline]
inhibition of C. albicans growth (halo formation) on serum plates [2]: weaker inhibition

CCCCCCCC(=O)O [Octanoic acid]
inhibition of C. albicans growth (halo formation) on serum plates [2]: weaker inhibition

CC(C)CCCC(C)N (stereo not drawn) [Octodrine, 6-methylheptan-2-amine]
inhibition of C. albicans growth (halo formation) on YPD plates [1]: moderate-to-weak anti-Candida activity and mild | inhibition of C. albicans growth (halo formation) on serum plates [2]: strong fungal growth inhibition; also recorded: prominent ability to kill; also recorded: most prominent drug that killed C. albicans in serum; also recorded: best Candida growth inhibition | sensitivity of C. albicans knockout mutants relative to wild type [3]: as sensitive as their wild type strains; also recorded: no C. albicans mutants (FIG. 3) showed a decrease in sensitivity | halo formation in E. coli lawn [4]: formed prominent halos; also recorded: capable of killing | halo formation in B. cereus lawn [5]: formed prominent halos; also recorded: capable of killing | survival of mouse macrophages (cell viability relative to untreated cells) [6]: the same as to the DMSO alone; also recorded: did not affect the sensitivity | elimination of serum-grown Candida lawn by undiluted drug [7]: sufficient to eliminate most of the whole fungal lawn

[O-][n+]1ccccc1[S-].[O-][n+]1ccccc1[S-].[Zn+2] [Pyrithione Zinc]
inhibition of C. albicans growth (halo formation) on YPD plates [1]: strong inhibition | inhibition of C. albicans growth (halo formation) on serum plates [2]: weak inhibition

Antimycin A
inhibition of C. albicans growth (halo formation) on YPD plates [1]: strong inhibition | inhibition of C. albicans growth (halo formation) on serum plates [2]: weak inhibition

From patent US9439876B2, “Method of treating microbial infections” (priority 2014, dated 2016)
